Measured values reported in ChEMBL document CHEMBL1201862, “PubChem BioAssay data set” (2004).
Activity calls are given as the source filed them.

Experiments:
BJ [1] = assay: BJ-TERT fibroblast viability loss – cell-based, RAS-independent, luminescence, dose response (AID 1933); assay type: functional; conditions: Homo sapiens
BJ [2] = assay: cells; assay type: functional, cell-based; conditions: Homo sapiens
BJ [3] = assay: BJ-TERT-LT-ST fibroblast viability loss – cell-based, RAS-independent, luminescence, dose response (AID 1935); assay type: functional; conditions: Homo sapiens;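 note: BJ fibroblasts immortalized with TERT plus LT and ST oncogenes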
[4] = DRD fibroblast viability loss – cell-based, non-viral oncogenic, luminescence, dose response (AID 1934); assay type: functional; conditions: Homo sapiens
BJ [5] = assay: growth inhibition of engineered Ras-driven BJ cells – cell-based, alamar blue fluorescence, cherrypicked samples, dose response (AID 2631); assay type: functional; conditions: Homo sapiens;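 note: confirmatory dose-response assay in RAS-dependent BJ fibroblasts engineered with TERT, LT and ST, with cytotoxicity read by fluorescence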
[6] = biological target: T1, Microphthalmia-associated transcription factor (Homo sapiens, UniProt O75030); assay: reducers of TRPM1 reporter luminescence, concentration series – cell-based, SK-MEL-5, cherry-picked, set 3, MITF inhibitor project, dose response (AID 493073); assay type: functional;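 note: SK-MEL-5 melanoma cells with luciferase driven by the MITF target TRPM1 promoter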
T1 sequence (O75030 whole entry): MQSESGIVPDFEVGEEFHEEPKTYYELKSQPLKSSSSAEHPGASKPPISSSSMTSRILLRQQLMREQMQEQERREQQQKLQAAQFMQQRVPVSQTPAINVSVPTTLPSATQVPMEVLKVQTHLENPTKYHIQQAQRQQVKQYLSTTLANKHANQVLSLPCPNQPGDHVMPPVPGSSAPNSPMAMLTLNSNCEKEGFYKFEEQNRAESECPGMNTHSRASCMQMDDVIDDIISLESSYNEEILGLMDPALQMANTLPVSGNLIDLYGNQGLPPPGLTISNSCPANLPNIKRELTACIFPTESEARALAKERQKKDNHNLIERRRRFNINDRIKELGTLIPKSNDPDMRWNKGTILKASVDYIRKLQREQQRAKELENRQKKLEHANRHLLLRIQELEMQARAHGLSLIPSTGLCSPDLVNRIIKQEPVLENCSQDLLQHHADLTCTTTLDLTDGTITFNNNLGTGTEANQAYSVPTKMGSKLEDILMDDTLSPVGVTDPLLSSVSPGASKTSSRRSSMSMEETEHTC

[7] = biological target: Ras and Rab interactor 1/Tyrosine-protein kinase ABL1 (Homo sapiens, UniProt P00519+Q13671); assay type: functional;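 note: biochemical TR-FRET dose-response test measuring inhibition of binding between Rin1 and Abl proteins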
Sequence of Ras and Rab interactor 1/Tyrosine-protein kinase ABL1 (P00519 whole entry): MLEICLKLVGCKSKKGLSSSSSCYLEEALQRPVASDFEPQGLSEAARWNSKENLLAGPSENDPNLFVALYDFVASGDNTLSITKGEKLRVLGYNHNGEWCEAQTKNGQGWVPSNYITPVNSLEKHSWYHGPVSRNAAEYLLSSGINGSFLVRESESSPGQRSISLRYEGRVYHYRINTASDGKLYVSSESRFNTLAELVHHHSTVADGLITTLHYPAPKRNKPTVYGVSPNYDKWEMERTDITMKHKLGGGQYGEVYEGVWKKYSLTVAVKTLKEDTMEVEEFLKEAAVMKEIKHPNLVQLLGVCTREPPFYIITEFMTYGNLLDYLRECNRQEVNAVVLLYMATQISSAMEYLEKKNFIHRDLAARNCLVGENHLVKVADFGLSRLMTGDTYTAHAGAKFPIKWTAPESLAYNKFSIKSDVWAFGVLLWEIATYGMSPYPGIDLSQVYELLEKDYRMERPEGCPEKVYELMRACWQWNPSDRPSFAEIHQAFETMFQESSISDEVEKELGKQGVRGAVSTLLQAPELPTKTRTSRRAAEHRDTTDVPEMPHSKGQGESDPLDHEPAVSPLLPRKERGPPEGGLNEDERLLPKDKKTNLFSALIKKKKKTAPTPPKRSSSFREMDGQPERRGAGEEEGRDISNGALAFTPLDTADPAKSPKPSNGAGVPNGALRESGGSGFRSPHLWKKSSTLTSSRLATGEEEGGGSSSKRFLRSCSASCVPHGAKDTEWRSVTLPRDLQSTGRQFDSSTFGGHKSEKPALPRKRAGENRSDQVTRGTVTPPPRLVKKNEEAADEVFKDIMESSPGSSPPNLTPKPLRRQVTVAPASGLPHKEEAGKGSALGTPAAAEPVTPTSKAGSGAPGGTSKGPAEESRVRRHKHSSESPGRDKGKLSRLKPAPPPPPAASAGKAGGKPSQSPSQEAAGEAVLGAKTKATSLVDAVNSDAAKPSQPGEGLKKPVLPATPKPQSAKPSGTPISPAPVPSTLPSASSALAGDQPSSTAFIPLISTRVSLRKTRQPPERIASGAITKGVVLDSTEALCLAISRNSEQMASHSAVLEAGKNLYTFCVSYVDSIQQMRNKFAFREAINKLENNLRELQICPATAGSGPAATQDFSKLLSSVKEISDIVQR
Sequence of Ras and Rab interactor 1/Tyrosine-protein kinase ABL1 (Q13671 whole entry): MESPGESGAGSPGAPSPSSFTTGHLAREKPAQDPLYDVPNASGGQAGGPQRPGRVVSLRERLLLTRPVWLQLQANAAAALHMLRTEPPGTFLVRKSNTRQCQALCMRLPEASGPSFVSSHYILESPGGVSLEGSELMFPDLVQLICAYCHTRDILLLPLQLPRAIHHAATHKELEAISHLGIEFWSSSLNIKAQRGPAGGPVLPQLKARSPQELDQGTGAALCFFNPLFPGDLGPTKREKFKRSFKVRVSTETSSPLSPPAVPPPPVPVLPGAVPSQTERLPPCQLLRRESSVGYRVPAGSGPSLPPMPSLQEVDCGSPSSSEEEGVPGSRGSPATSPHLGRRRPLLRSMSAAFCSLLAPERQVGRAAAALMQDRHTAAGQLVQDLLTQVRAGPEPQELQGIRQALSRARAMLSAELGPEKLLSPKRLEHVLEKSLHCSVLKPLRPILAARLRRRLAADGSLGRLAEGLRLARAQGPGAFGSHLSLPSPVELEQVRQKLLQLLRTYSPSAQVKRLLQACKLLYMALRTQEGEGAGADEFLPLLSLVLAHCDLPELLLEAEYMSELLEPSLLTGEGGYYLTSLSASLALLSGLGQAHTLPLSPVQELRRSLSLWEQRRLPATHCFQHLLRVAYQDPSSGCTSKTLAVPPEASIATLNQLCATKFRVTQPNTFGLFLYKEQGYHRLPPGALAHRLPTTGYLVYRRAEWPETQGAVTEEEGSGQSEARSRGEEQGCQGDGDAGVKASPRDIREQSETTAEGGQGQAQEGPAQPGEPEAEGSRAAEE

[8] = intracellular Trypanosoma cruzi inhibitors in host cells – cell-based, plate reader, cherry-pick samples, set 3, dose response (AID 651818); assay type: functional;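 note: compounds incubated with infected cells for about four days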
[9] = viability of uninfected HEp-2 cells – cell-based, HTS, cytotoxicity control for RSV inhibitor project, dose response (AID 2410); assay type: functional; conditions: human respiratory syncytial virus
Vero [10] = assay: cells; assay type: functional, cell-based; conditions: Chlorocebus sabaeus
Vero [11] = assay: cells; assay type: functional; conditions: Chlorocebus sabaeus
[12] = Luminescence Cell-Based Dose Retest to Confirm Inhibitors of Cancer Stem Cells. [Related pubchem assays (depositor defined):AID2717, AID2721]; assay type: functional; conditions: Homo sapiens
[13] = HEK-293T viability loss after treatment – luminescence, T-cell screen hits, cytotoxicity control for TCR NF-kB inhibitor project, dose response (AID 489026); assay type: functional, cell-based;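 note: cells exposed to compound about 14 hours before the viability readout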
Paired box protein Pax-8 = Paired box protein Pax-8 (Homo sapiens, UniProt Q06710); assay: PAX8 transcriptional activity inhibition in RMG-I – RMG-I cells, luciferase, cherry-pick, dose response (AID 687027); assay type: functional, cell-based;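 note: luciferase reporter driven by Pax8 target thyroperoxidase promoter measured by SteadyGlo luminescence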
Sequence of Paired box protein Pax-8 (Q06710 whole entry): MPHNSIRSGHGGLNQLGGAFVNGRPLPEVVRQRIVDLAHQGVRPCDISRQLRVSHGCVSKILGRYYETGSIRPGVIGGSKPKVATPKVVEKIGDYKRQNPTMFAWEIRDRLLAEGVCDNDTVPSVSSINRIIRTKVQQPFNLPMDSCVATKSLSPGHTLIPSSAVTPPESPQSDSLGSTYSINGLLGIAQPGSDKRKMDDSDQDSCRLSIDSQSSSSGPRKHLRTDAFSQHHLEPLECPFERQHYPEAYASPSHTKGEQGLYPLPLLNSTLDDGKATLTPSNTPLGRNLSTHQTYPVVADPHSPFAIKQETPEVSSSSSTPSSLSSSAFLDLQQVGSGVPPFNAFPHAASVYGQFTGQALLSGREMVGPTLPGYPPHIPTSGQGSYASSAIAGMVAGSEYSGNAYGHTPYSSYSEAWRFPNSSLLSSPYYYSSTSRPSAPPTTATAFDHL

COc1cc(NC(=O)c2cccs2)c(OC)cc1NC(=O)CCC(=O)Nc1ccc2ncccc2c1
EC50 (BJ [1]): > 150 µM (not active) | EC50 (BJ [2]): 8.14 µM (active) | EC50 (BJ [3]): > 150 µM (not active) | EC50 [4]: > 150 µM (not active) | EC50 (BJ [5]): 4.28 µM (inconclusive)

O=C(COC(=O)c1ccc(F)c([N+](=O)[O-])c1)NC(=O)NCc1ccccc1
AC50 [6]: 13.6 µM (active)

Nc1cc[n+]([O-])cc1CCc1ccccc1
IC50 [7]: 23.3 µM (inactive)

O=C(Cc1ccc(NC(=O)C2CCN(C(=O)c3ccccc3)CC2)cc1)Nc1ccc(C(=O)N2CCOCC2)cc1
IC50 [7]: 6.48 µM (active)

C[C@H](CO)N1C[C@H](C)[C@@H](CN(C)Cc2ccc(C(=O)Nc3ccccc3N)cc2)Oc2c(NC(=O)c3nc4ccccc4s3)cccc2C1=O
AC50 [8]: 1.6 µM (active)

C[C@H]1CN([C@@H](C)CO)C(=O)c2cccc(NC(=O)CCCCCC(=O)Nc3ccccc3N)c2O[C@H]1CN(C)S(=O)(=O)c1ccc(Cl)cc1
AC50 [8]: 3.53 µM (active)

C[C@@H]1CCCCO[C@@H](CN(C)C(=O)Nc2ccc(C(F)(F)F)cc2)[C@@H](C)CN([C@H](C)CO)C(=O)c2cc(NC(=O)Cc3ccccc3)ccc2O1
AC50 [8]: 4.33 µM (active)

C[C@H](CO)N1C[C@H](C)[C@H](CN(C)S(=O)(=O)c2cccs2)Oc2c(NC(=O)Nc3ccc(C(F)(F)F)cc3)cccc2C1=O
AC50 [8]: 4.19 µM (active)

Cc1cccc(-n2c(C)cc(/C=N\NC(=O)c3cccs3)c2C)c1
CC50 [9]: 23.4 µM (active) | IC50 (Vero [10]): 14.7 µM (active) | CC50 (Vero [11]): > 25 µM (active)

C[C@]12CC[C@H](O)C[C@H]1CC[C@@H]1[C@@H]2C[C@@H](O)[C@]2(C)[C@@H](C3=CC(=O)OC3)CC[C@]12O [DIGOXIGENIN]
AC50 [12]: 1.16 µM (active) | IC50 [13]: > 80 µM (inactive) | IC50 (Vero [10]): < 0.05 µM (active) | CC50 (Vero [11]): 2.1 µM (active) | AC50 (Paired box protein Pax-8): 2.35 µM (active)
